Laboratory results: PubChem BioAssay AID504487 (Sanford-Burnham Center for Chemical Genomics, 2011)
Active and inactive are the calls of the source.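 Rule for the calls: active = IC50 at or below 20 µM; inactive = the rest.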

Tested on: 697 B-cell NF-kB luciferase reporter, PMA/ionomycin, 16 h
Experiment: NF-kB reporter suppression in 697 B cells – T-cell screen hits, luminescence, SAR follow-up (AID 504487)

Row | Structure (SMILES) | IC50
1 | CCCC(=O)NC(c1ccc(Cl)cc1)c1ccc2cccnc2c1O (stereo not drawn) | > 79 µM (inactive)
2 | COc1cccc(C(=O)Nc2ccc3[nH]c(-c4cccc(OC)c4)cc(=O)c3c2)c1 | > 79 µM (inactive)
3 | CCCC(=O)NC(c1ccccc1)c1ccc2cccnc2c1O (stereo not drawn) | > 79 µM (inactive)
4 | CCCC(=O)NC(c1ccc(C)cc1)c1ccc2cccnc2c1O (stereo not drawn) | > 79 µM (inactive)
5 | CCCC(=O)NC(c1ccccc1OC)c1ccc2cccnc2c1O (stereo not drawn) | > 79 µM (inactive)

Other lines, results leading:

Row | IC50 | Structure (SMILES)
6 | > 79 µM (inactive) | COc1ccc(C(NC(C)=O)c2ccc3cccnc3c2O)cc1 (stereo not drawn)
7 | > 79 µM (inactive) | COc1ccc(C(NC(=O)c2ccccc2)c2ccc3cccnc3c2O)cc1 (stereo not drawn)
8 | > 79 µM (inactive) | CCCC(=O)NC(c1ccc(OC)cc1)c1ccc2cccnc2c1O (stereo not drawn)
